Numbers after ± are expanded uncertainties.
Conditions: Liquid, Transpiration method

For `CCCCCCCCCCc1ccccc1` [1-phenyldecane], the “vapor or sublimation pressure” value (318.2 K) was 0.00122 ± 9e-05 kPa, the “vapor or sublimation pressure” value (323.2 K) was 0.00192 ± 0.00014 kPa and the “vapor or sublimation pressure” value (328.3 K) was 0.00293 ± 0.00021 kPa. For the same compound, the “vapor or sublimation pressure” value (333.5 K) was 0.0045 ± 0.00032 kPa, the “vapor or sublimation pressure” value (338.6 K) was 0.00655 ± 0.00047 kPa and the “vapor or sublimation pressure” value (343.7 K) was 0.00966 ± 0.00069 kPa. For the same compound, the “vapor or sublimation pressure” value (348.7 K) was 0.0144 ± 0.001 kPa, the “vapor or sublimation pressure” value (353.3 K) was 0.0203 ± 0.0014 kPa and the “vapor or sublimation pressure” value (358.4 K) was 0.0288 ± 0.002 kPa. The “vapor or sublimation pressure” value (363.4 K) was 0.0406 ± 0.0029 kPa.

With `CCCCCCCc1ccccc1` [heptylbenzene] the “vapor or sublimation pressure” value (292.5 K) was 0.00286 ± 0.00021 kPa, the “vapor or sublimation pressure” value (294.5 K) was 0.00347 ± 0.00025 kPa and the “vapor or sublimation pressure” value (297.5 K) was 0.00455 ± 0.00033 kPa. For the same compound, the “vapor or sublimation pressure” value (300.4 K) was 0.00585 ± 0.00042 kPa, the “vapor or sublimation pressure” value (303.4 K) was 0.00761 ± 0.00054 kPa and the “vapor or sublimation pressure” value (306.4 K) was 0.00955 ± 0.00068 kPa. The “vapor or sublimation pressure” value (309.4 K) was 0.01227 ± 0.00087 kPa, the “vapor or sublimation pressure” value (312.4 K) was 0.01486 ± 0.0011 kPa and the “vapor or sublimation pressure” value (315.4 K) was 0.01959 ± 0.0014 kPa. The “vapor or sublimation pressure” value (318.2 K) was 0.02441 ± 0.0017 kPa, the “vapor or sublimation pressure” value (321.3 K) was 0.03085 ± 0.0022 kPa and the “vapor or sublimation pressure” value (323.4 K) was 0.03499 ± 0.0025 kPa. For the same compound, the “vapor or sublimation pressure” value (326.4 K) was 0.04342 ± 0.0031 kPa, the “vapor or sublimation pressure” value (328.4 K) was 0.04901 ± 0.0035 kPa and the “vapor or sublimation pressure” value (331.3 K) was 0.06114 ± 0.0043 kPa. The “vapor or sublimation pressure” value (333.5 K) was 0.06975 ± 0.0049 kPa, the “vapor or sublimation pressure” value (336.4 K) was 0.0845 ± 0.006 kPa and the “vapor or sublimation pressure” value (338.5 K) was 0.09752 ± 0.0069 kPa. For the same compound, the “vapor or sublimation pressure” value (341.3 K) was 0.1139 ± 0.0081 kPa, the “vapor or sublimation pressure” value (343.5 K) was 0.1322 ± 0.0094 kPa and the “vapor or sublimation pressure” value (346.3 K) was 0.1552 ± 0.011 kPa. The “vapor or sublimation pressure” value (348.5 K) was 0.1818 ± 0.013 kPa, the “vapor or sublimation pressure” value (351.5 K) was 0.2197 ± 0.015 kPa and the “vapor or sublimation pressure” value (353.5 K) was 0.2474 ± 0.018 kPa.

With `CCCCCc1ccccc1` [pentylbenzene] the “vapor or sublimation pressure” value (284.5 K) was 0.0162 ± 0.0012 kPa, the “vapor or sublimation pressure” value (287.5 K) was 0.0218 ± 0.0016 kPa and the “vapor or sublimation pressure” value (290.4 K) was 0.0272 ± 0.0019 kPa. The “vapor or sublimation pressure” value (293.3 K) was 0.0333 ± 0.0024 kPa, the “vapor or sublimation pressure” value (293.4 K) was 0.0328 ± 0.0023 kPa and the “vapor or sublimation pressure” value (296.3 K) was 0.0427 ± 0.003 kPa. The “vapor or sublimation pressure” value (298.3 K) was 0.0493 ± 0.0035 kPa, the “vapor or sublimation pressure” value (303.2 K) was 0.0706 ± 0.005 kPa and the “vapor or sublimation pressure” value (306.3 K) was 0.0902 ± 0.0064 kPa. For the same compound, the “vapor or sublimation pressure” value (308.2 K) was 0.0998 ± 0.0071 kPa, the “vapor or sublimation pressure” value (311.2 K) was 0.1227 ± 0.0087 kPa and the “vapor or sublimation pressure” value (314.2 K) was 0.1487 ± 0.011 kPa. For the same compound, the “vapor or sublimation pressure” value (317.3 K) was 0.1765 ± 0.013 kPa, the “vapor or sublimation pressure” value (320.3 K) was 0.2193 ± 0.016 kPa and the “vapor or sublimation pressure” value (323.2 K) was 0.2711 ± 0.019 kPa.

With `CCCCCCCCCCCc1ccccc1` [undecylbenzene] the “vapor or sublimation pressure” value (313.2 K) was 0.00027 ± 2e-05 kPa, the “vapor or sublimation pressure” value (319.3 K) was 0.0005 ± 4e-05 kPa and the “vapor or sublimation pressure” value (323.3 K) was 0.00072 ± 5e-05 kPa. The “vapor or sublimation pressure” value (327.3 K) was 0.00104 ± 7e-05 kPa, the “vapor or sublimation pressure” value (331.3 K) was 0.00146 ± 0.0001 kPa and the “vapor or sublimation pressure” value (333.4 K) was 0.00176 ± 0.00013 kPa. For the same compound, the “vapor or sublimation pressure” value (338.4 K) was 0.00262 ± 0.00019 kPa, the “vapor or sublimation pressure” value (343.5 K) was 0.00413 ± 0.0003 kPa and the “vapor or sublimation pressure” value (348.7 K) was 0.00598 ± 0.00043 kPa. The “vapor or sublimation pressure” value (353.6 K) was 0.00906 ± 0.00065 kPa, the “vapor or sublimation pressure” value (358.7 K) was 0.01272 ± 0.0009 kPa and the “vapor or sublimation pressure” value (363.8 K) was 0.01807 ± 0.0013 kPa.

Source: the NIST ThermoML archive (doi:10.1016/j.jct.2005.11.009)
